pIC50: −log10 of the molar value.
Assays:
[1] = system: MDA-MB-435; assay: Growth inhibition of human MDA-MB-435 cells assessed as cell growth at 1 uM incubated for 48 hrs by sulforhodamine B assay relative to control; assay type: functional; conditions: MDA-MB-435, 48 h, read-out: Activity
[2] = system: RPMI-8226; assay: Growth inhibition of human RPMI8226 cells incubated for 48 hrs by sulforhodamine B assay; assay type: functional, cell-based; conditions: RPMI-8226, 48 h
[3] = system: CAKI-1; assay: Growth inhibition of human Caki1 cells incubated for 48 hrs by sulforhodamine B assay; assay type: functional, cell-based; conditions: CAKI-1, 48 h
[4] = system: RPMI-8226; assay: Growth inhibition of human RPMI8226 cells assessed as cell growth at 0.01 uM incubated for 48 hrs by sulforhodamine B assay relative to control; assay type: functional; conditions: RPMI-8226, 48 h, read-out: Activity
[5] = system: SF-268; assay: Growth inhibition of human SF268 cells assessed as cell growth at 0.01 uM incubated for 48 hrs by sulforhodamine B assay relative to control; assay type: functional; conditions: SF-268, 48 h, read-out: Activity
[6] = system: CCRF-CEM; assay: Growth inhibition of human CCRF-CEM cells assessed as cell growth at 0.1 uM incubated for 48 hrs by sulforhodamine B assay relative to control; assay type: functional; conditions: read-out: Activity
[7] = system: ACHN; assay: Growth inhibition of human ACHN cells assessed as cell growth at 1 uM incubated for 48 hrs by sulforhodamine B assay relative to control; assay type: functional; conditions: read-out: Activity
[8] = system: CAKI-1; assay: Growth inhibition of human Caki1 cells assessed as cell growth at 100 uM incubated for 48 hrs by sulforhodamine B assay relative to control; assay type: functional; conditions: CAKI-1, 48 h, read-out: Activity
[9] = system: MDA-MB-231; assay: Growth inhibition of human MDA-MB-231 cells assessed as cell growth at 1 uM incubated for 48 hrs by sulforhodamine B assay relative to control; assay type: functional; conditions: MDA-MB-231, 48 h, read-out: Activity
[10] = system: NCI-H322M; assay: Growth inhibition of human NCI-H322M cells assessed as cell growth at 1 uM incubated for 48 hrs by sulforhodamine B assay relative to control; assay type: functional; conditions: read-out: Activity
[11] = system: OVCAR-8; assay: Growth inhibition of human OVCAR8 cells incubated for 48 hrs by sulforhodamine B assay; assay type: functional, cell-based; conditions: OVCAR-8, 48 h
[12] = system: ACHN; assay: Growth inhibition of human ACHN cells assessed as cell growth at 0.1 uM incubated for 48 hrs by sulforhodamine B assay relative to control; assay type: functional; conditions: read-out: Activity
[13] = system: SK-OV-3; assay: Growth inhibition of human SKOV3 cells assessed as cell growth at 100 uM incubated for 48 hrs by sulforhodamine B assay relative to control; assay type: functional; conditions: SK-OV-3, 48 h, read-out: Activity
[14] = system: HOP-62; assay: Growth inhibition of human HOP62 cells assessed as cell growth at 0.1 uM incubated for 48 hrs by sulforhodamine B assay relative to control; assay type: functional; conditions: HOP-62, 48 h, read-out: Activity
[15] = system: 786-0; assay: Growth inhibition of human 786-0 cells assessed as cell growth at 100 uM incubated for 48 hrs by sulforhodamine B assay relative to control; assay type: functional; conditions: 786-0, 48 h, read-out: Activity
[16] = system: HCT-116; assay: Growth inhibition of human HCT116 cells assessed as cell growth at 1 uM incubated for 48 hrs by sulforhodamine B assay relative to control; assay type: functional; conditions: HCT-116, 48 h, read-out: Activity
[17] = system: UO-31; assay: Growth inhibition of human UO31 cells assessed as cell growth at 100 uM incubated for 48 hrs by sulforhodamine B assay relative to control; assay type: functional; conditions: UO-31, 48 h, read-out: Activity
[18] = system: Malme-3M; assay: Growth inhibition of human MALME-3M cells incubated for 48 hrs by sulforhodamine B assay; assay type: functional, cell-based
[19] = system: UO-31; assay: Growth inhibition of human UO31 cells assessed as cell growth at 0.1 uM incubated for 48 hrs by sulforhodamine B assay relative to control; assay type: functional; conditions: UO-31, 48 h, read-out: Activity
[20] = system: NCI-H460; assay: Growth inhibition of human NCI-H460 cells assessed as cell growth at 100 uM incubated for 48 hrs by sulforhodamine B assay relative to control; assay type: functional; conditions: NCI-H460, 48 h, read-out: Activity
[21] = system: NCI-H322M; assay: Growth inhibition of human NCI-H322M cells incubated for 48 hrs by sulforhodamine B assay; assay type: functional, cell-based
[22] = system: HCC 2998; assay: Growth inhibition of human HCC2998 cells assessed as cell growth at 0.01 uM incubated for 48 hrs by sulforhodamine B assay relative to control; assay type: functional; conditions: HCC 2998, 48 h, read-out: Activity
[23] = system: SF-295; assay: Growth inhibition of human SF295 cells incubated for 48 hrs by sulforhodamine B assay; assay type: functional, cell-based; conditions: SF-295, 48 h
[24] = system: NCI-H460; assay: Growth inhibition of human NCI-H460 cells assessed as cell growth at 0.01 uM incubated for 48 hrs by sulforhodamine B assay relative to control; assay type: functional; conditions: NCI-H460, 48 h, read-out: Activity
[25] = system: NCI-H460; assay: Growth inhibition of human NCI-H460 cells assessed as cell growth at 1 uM incubated for 48 hrs by sulforhodamine B assay relative to control; assay type: functional; conditions: NCI-H460, 48 h, read-out: Activity
[26] = system: MCF7; assay: Growth inhibition of human MCF7 cells assessed as cell growth at 100 uM incubated for 48 hrs by sulforhodamine B assay relative to control; assay type: functional; conditions: MCF7, 48 h, read-out: Activity
[27] = system: MCF7; assay: Growth inhibition of human MCF7 cells assessed as cell growth at 0.1 uM incubated for 48 hrs by sulforhodamine B assay relative to control; assay type: functional; conditions: MCF7, 48 h, read-out: Activity
[28] = system: HCT-15; assay: Growth inhibition of human HCT15 cells assessed as cell growth at 0.01 uM incubated for 48 hrs by sulforhodamine B assay relative to control; assay type: functional; conditions: HCT-15, 48 h, read-out: Activity
[29] = system: NCI-H522; assay: Growth inhibition of human NCI-H522 cells assessed as cell growth at 1 uM incubated for 48 hrs by sulforhodamine B assay relative to control; assay type: functional; conditions: NCI-H522, 48 h, read-out: Activity
[30] = read-out: LC50 (the source's name)
[31] = read-out: pLC50 (the source's name) (converted)

## O=C(Nc1cccc(-n2cc(-c3ccncc3)c(-c3cc(O)cc(Cl)c3)n2)c1)c1ccc(N2CCOCC2)c(C(F)(F)F)c1
[1]
  growth at 1 µM: 54%
[2]
  pIC50: 6.40
[2]; read-out: GI50
  GI50: 0.396 µM
[2]; [30]
  CC50: > 100 µM
[2]; read-out: TGI
  TGI: 23.1 µM
[2]; read-out: pGI50 (converted)
  GI50: 0.398 µM
[2]; [31]
  CC50: > 100 µM
[2]; read-out: pTGI (converted)
  TGI: 2.29 µM
[3]; read-out: GI50
  GI50: 1.1 µM
[3]; [30]
  CC50: > 100 µM
[3]; read-out: TGI
  TGI: 60 µM
[3]; read-out: pGI50 (converted)
  GI50: 1.1 µM
[3]; [31]
  CC50: > 100 µM
[3]; read-out: pTGI (converted)
  TGI: 6.03 µM
[4]
  growth at 0.01 µM: 104%
[5]
  growth at 0.01 µM: 101%
[6]
  growth at 0.1 µM: 95%
[7]
  growth at 1 µM: 52%
[8]
  growth at 100 µM: -32%
[9]
  growth at 1 µM: 11%
[10]
  growth at 1 µM: 57%
[11]; read-out: GI50
  GI50: 15.4 µM
[11]; [30]
  CC50: > 100 µM
[11]; read-out: TGI
  TGI: > 100 µM
[11]; read-out: pGI50 (converted)
  GI50: 1.62 µM
[11]; [31]
  CC50: > 100 µM
[11]; read-out: pTGI (converted)
  TGI: > 100 µM
[12]
  growth at 0.1 µM: 99%
[13]
  growth at 100 µM: 19%
[14]
  growth at 0.1 µM: 112%
[15]
  growth at 100 µM: -82%
[16]
  growth at 1 µM: 58%
[17]
  growth at 100 µM: -33%
[18]; read-out: GI50
  GI50: 1.38 µM
[18]; [30]
  CC50: > 100 µM
[18]; read-out: TGI
  TGI: 51.9 µM
[18]; read-out: pGI50 (converted)
  GI50: 1.38 µM
[18]; [31]
  CC50: > 100 µM
[18]; read-out: pTGI (converted)
  TGI: 5.25 µM
[19]
  growth at 0.1 µM: 95%
[20]
  growth at 100 µM: -47%
[21]; read-out: GI50
  GI50: 2.53 µM
[21]; [30]
  CC50: > 100 µM
[21]; read-out: TGI
  TGI: > 100 µM
[21]; read-out: pGI50 (converted)
  GI50: 2.82 µM
[21]; [31]
  CC50: > 100 µM
[21]; read-out: pTGI (converted)
  TGI: > 100 µM
[22]
  growth at 0.01 µM: 102%
[23]; read-out: GI50
  GI50: 0.514 µM
[23]; [30]
  CC50: 25.1 µM
[23]; read-out: TGI
  TGI: 27.8 µM
[23]; read-out: pGI50 (converted)
  GI50: 0.617 µM
[23]; [31]
  CC50: 28.2 µM
[23]; read-out: pTGI (converted)
  TGI: 2.75 µM
[24]
  growth at 0.01 µM: 104%
[25]
  growth at 1 µM: 44%
[26]
  growth at 100 µM: 14%
[27]
  growth at 0.1 µM: 87%
[28]
  growth at 0.01 µM: 91%
[29]
  growth at 1 µM: 40%

## O=C(Nc1cccc(-n2cc(-c3ccncc3)c(-c3cc(O)cc(Cl)c3)n2)c1)Nc1ccc(Cl)c(C(F)(F)F)c1
[1]
  growth at 1 µM: 57%
[2]
  pIC50: 5.71
[2]; read-out: GI50
  GI50: 1.96 µM
[2]; [30]
  CC50: > 100 µM
[2]; read-out: TGI
  TGI: 50 µM
[2]; read-out: pGI50 (converted)
  GI50: 1.95 µM
[2]; [31]
  CC50: > 100 µM
[2]; read-out: pTGI (converted)
  TGI: 5.13 µM
[3]; read-out: GI50
  GI50: 2.53 µM
[3]; [30]
  CC50: > 100 µM
[3]; read-out: TGI
  TGI: 78.7 µM
[3]; read-out: pGI50 (converted)
  GI50: 2.69 µM
[3]; [31]
  CC50: > 100 µM
[3]; read-out: pTGI (converted)
  TGI: 7.94 µM
[4]
  growth at 0.01 µM: 101%
[5]
  growth at 0.01 µM: 95%
[6]
  growth at 0.1 µM: 95%
[7]
  growth at 1 µM: 92%
[8]
  growth at 100 µM: -38%
[9]
  growth at 1 µM: 77%
[10]
  growth at 1 µM: 93%
[11]; read-out: GI50
  GI50: 2.15 µM
[11]; [30]
  CC50: 50.1 µM
[11]; read-out: TGI
  TGI: 55.5 µM
[11]; read-out: pGI50 (converted)
  GI50: 2.14 µM
[11]; [31]
  CC50: 79.4 µM
[11]; read-out: pTGI (converted)
  TGI: 5.62 µM
[12]
  growth at 0.1 µM: 93%
[13]
  growth at 100 µM: -15%
[14]
  growth at 0.1 µM: 97%
[15]
  growth at 100 µM: -50%
[16]
  growth at 1 µM: 91%
[17]
  growth at 100 µM: -73%
[18]; read-out: GI50
  GI50: 2.37 µM
[18]; [30]
  CC50: 24.3 µM
[18]; read-out: TGI
  TGI: 62.5 µM
[18]; read-out: pGI50 (converted)
  GI50: 2.34 µM
[18]; [31]
  CC50: 24.5 µM
[18]; read-out: pTGI (converted)
  TGI: 6.31 µM
[19]
  growth at 0.1 µM: 83%
[20]
  growth at 100 µM: -52%
[21]; read-out: GI50
  GI50: 3.15 µM
[21]; [30]
  CC50: 95.5 µM
[21]; read-out: TGI
  TGI: 13 µM
[21]; read-out: pGI50 (converted)
  GI50: 3.16 µM
[21]; [31]
  CC50: 95.5 µM
[21]; read-out: pTGI (converted)
  TGI: 12.9 µM
[22]
  growth at 0.01 µM: 97%
[23]; read-out: GI50
  GI50: 2.06 µM
[23]; [30]
  CC50: 17 µM
[23]; read-out: TGI
  TGI: 49.6 µM
[23]; read-out: pGI50 (converted)
  GI50: 2.57 µM
[23]; [31]
  CC50: 17.8 µM
[23]; read-out: pTGI (converted)
  TGI: 4.9 µM
[24]
  growth at 0.01 µM: 101%
[25]
  growth at 1 µM: 96%
[26]
  growth at 100 µM: -43%
[27]
  growth at 0.1 µM: 91%
[28]
  growth at 0.01 µM: 93%
[29]
  growth at 1 µM: 51%

Reference: ChEMBL document CHEMBL4308841, “Synthesis, in vitro antiproliferative activity, and kinase inhibitory effects of pyrazole-containing diarylureas and diarylamides” (Eur J Med Chem, 2018)
